Test results reported in PMC12254266, “Multicolored sequential resonance energy transfer for detection of simultaneous ligand binding at G protein-coupled receptors” (Nature Communications, 2025).
Values joined by “and” are separate entries in the source; they are usually repeats but may differ in a detail not shown here. Equal entries are not always repeated.

What was measured:
[1] = target: T1, FFA1 (Homo sapiens, UniProt O14842); test: Ca2+ mobilisation (Fura2) in Flp-In T-REx 293 cells expressing Nluc-FFA1, FFA1-Nluc or untagged FFA1; format: cell-based; set-up: expressed in transfected cells; conditions: for Ca2+ Response as a % of T360 Response: single technical replicates
T1 sequence (O14842 whole entry): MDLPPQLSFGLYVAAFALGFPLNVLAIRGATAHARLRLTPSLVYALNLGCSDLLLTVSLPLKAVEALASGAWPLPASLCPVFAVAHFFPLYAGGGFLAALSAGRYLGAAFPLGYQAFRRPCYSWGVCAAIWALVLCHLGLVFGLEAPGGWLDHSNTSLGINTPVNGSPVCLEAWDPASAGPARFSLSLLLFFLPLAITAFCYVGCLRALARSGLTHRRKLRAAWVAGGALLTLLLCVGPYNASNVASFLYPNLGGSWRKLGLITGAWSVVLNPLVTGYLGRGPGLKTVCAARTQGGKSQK
Description: Nluc-FFA1, FFA1-Nluc or untagged FFA1 Flp-In T-REx 293 cells were plated at 50,000 cells per well in poly-D-lysine coated black clear bottom 96-well plates. Cells were then cultured for 24 h until reaching confluency before culture medium was replaced with medium containing 100 ng/mL of doxycycline to induce receptor expression. Cells were cultured for a further 24 h before the assay. On the day of the assay culture medium was removed and replaced with medium containing 3 μM Fura2-AM Ca^2+ dye. […] Fura2 fluorescent emission at 520 nm following excitation with each of 340 and 380 nm was measured in regular intervals both before and after adding test compounds for a total of 90 s per well. Calcium responses were determined by taking the peak 340/380 ratio after first subtracting the ratios obtained prior to addition of test compound.

[2] = target: FFA1-Nluc (Homo sapiens, UniProt O14842); test: DISCo-BRET (endpoint, spectra scan, kinetics) with TUG-2591 and TUG-2597 at C terminal Nluc tagged FFA1; format: binding; set-up: expressed in transfected cells; conditions: for Specific BRET (540/450), % of control: Figure 4Bii, single replicate values (technical duplicate)
FFA1-Nluc, sequence (O14842 whole entry): as above
Procedure, shortened: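 Flp-In T-REx 293 cells expressing Nluc-tagged FFA1 were induced with 100 ng/mL doxycycline for 24 h, then given Nano-Glo (1:800 final). Endpoint and spectral reads were taken 5 min after ligand at 37 °C; kinetics were read at 25 °C with sequential ligand additions. BRET ratios were taken from Nluc, NBD and SulfoCy5 emissions.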

[3] = target: T1, FFA1; test: NanoBiT arrestin-3 recruitment in HEK293T cells; format: cell-based; set-up: expressed in transfected cells; host or cells: HEK293T, transient; conditions: for Arrestin recruitment (% TUG-905): technical duplicate
Description: For arrestin-3 recruitment assays, HEK293T cells were transfected with FFA1 receptor and a bystander NanoBiT split luciferase arrestin-3 recruitment biosensor. Cells were transfected and plated simultaneously in a reverse transfection protocol into a poly-D-lysine coated white 96-well plate. Per well, 60,000 cells were transfected with 5 ng plasmid expressing LgBiT with a N-terminal Lyn11 plasma membrane localisation tag, 5 ng plasmid expressing bovine arrestin-3 fused at its N-terminal to SmBiT tag and 30 ng plasmid expressing the human FFA1 receptor. Total DNA was made up to 100 ng total/well with empty pcDNA3 vector and transfected to cell suspension with 0.6 µg/well PEI. Following transfection cells were cultured for 24 h before use. On the day of assay, cells were washed twice with HBSS and incubated in HBSS for 30 min at 37 °C. NanoGlo substrate was added at a final 1:800 dilution and incubated in the dark for 10 min at 37 °C. […] Raw luminescence values were divided by baseline signal (average of first 5 data points prior to compound addition) and vehicle measurements subtracted from agonist treatment. Area under curves were calculated and concentration response curves plotted.

pEC50 ([1]; Ca2+ data, mean±SEM, NR = No response): 7.58±0.37
EMax ([1]; percentage of response to 10 μM T360, NR = No response): 108±8%
pIC50 DISCo-BRET NBD/Nluc ([2]; 100 nM TUG-2591 and […] TUG-2597, NC = No competition): 7.3±0.1
pIC50 DISCo-BRET SulfoCy5/NBD ([2]; 100 nM TUG-2591 and […] TUG-2597, one site model, NC = No competition): 7.4±0.1
'bottom' of the IC50 curve, DISCo-BRET NBD/Nluc ([2]; percentage of binding obtained in the absence of competing ligand): 9.3%
'bottom' of the IC50 curve, DISCo-BRET SulfoCy5/NBD ([2]; percentage of binding obtained in the absence of competing ligand, 100 nM TUG-2591 and […] TUG-2597): 16%
pKi DISCo-BRET NBD/Nluc ([2]; using Kd TUG-2597 380 nM): 7.5±0.1
EMax (% TUG-905) arrestin-3 recruitment ([3]; percentage of the response to 10 μM TUG-905, ± SEM): 54 ± 6%
pEC50 arrestin-3 recruitment ([3]; ± SEM, N=3): 9.1 ±0.1
Compound: COc1ccc(C(=O)N(CC(C)(C)C)c2cccc(C)n2)c(N2CCC(COc3cccc(C(CC(=O)O)C4CC4)c3)CC2)c1.O=C(O)C(F)(F)F (stereo not drawn) [Cpd 6h, reference compound]
Ca2+ Response as a % of T360 Response ([1]; log[Ligand] -5): 84.6341% and 118.5422% and 131.5391% and 131.6815%
Ca2+ Response as a % of T360 Response ([1]; log[Ligand] -5.5): 110.3362% and 90.2944% and 104.2328% and 116.7691% and 104.8460% and 102.3011%
Ca2+ Response as a % of T360 Response ([1]; log[Ligand] -6): 71.8152% and 70.2762% and 114.0711% and 118.1782% and 101.8675% and 96.5850%
Ca2+ Response as a % of T360 Response ([1]; log[Ligand] -6.5): 60.3759% and 123.2785% and 113.4233% and 101.5371% and 93.1451%
Ca2+ Response as a % of T360 Response ([1]; log[Ligand] -7): 63.1956% and 51.7459% and 118.1727% and 120.9922% and 92.4678% and 86.2833%
Ca2+ Response as a % of T360 Response ([1]; log[Ligand] -8): 10.9661% and -4.3988% and 87.5826% and 74.3785% and 6.7799% and 2.9748%
Ca2+ Response as a % of T360 Response ([1]; log[Ligand] -9): -2.3895% and -2.3898% and 3.1637% and 3.9796% and -0.4916% and 4.7706%
Specific BRET (540/450), % of control ([2]; log[Ligand] -5): 29.23 % of control and -1.54 % of control and -0.53 % of control and 0.53 % of control and 0.62 % of control and 6.18 % of control and -2.77 % of control and 4.56 % of control and -7.63 % of control and 10.97 % of control
Specific BRET (540/450), % of control ([2]; log[Ligand] -5.5): 46.57 % of control and -7.13 % of control and 13.78 % of control and 13.63 % of control and 17.56 % of control and 19.08 % of control and -1.79 % of control and 0.81 % of control and 1.43 % of control and -21.22 % of control
Specific BRET (540/450), % of control ([2]; log[Ligand] -6): 59.72 % of control and 23.08 % of control and 13.18 % of control and 6.55 % of control and 14.37 % of control and 13.95 % of control and 102.77 % of control and 7.65 % of control and 12.16 % of control and 25.98 % of control
Specific BRET (540/450), % of control ([2]; log[Ligand] -6.5): 46.01 % of control and 12.17 % of control and 20.56 % of control and 31.70 % of control and 26.58 % of control and 36.43 % of control and 14.98 % of control and 12.87 % of control and 22.17 % of control and 15.73 % of control
Specific BRET (540/450), % of control ([2]; log[Ligand] -7): 46.01 % of control and 48.53 % of control and 38.93 % of control and 54.59 % of control and 43.79 % of control and 54.75 % of control and 36.48 % of control and 23.45 % of control and 26.46 % of control and 27.41 % of control
Specific BRET (540/450), % of control ([2]; log[Ligand] -8): 134.69 % of control and 121.26 % of control and 83.36 % of control and 78.84 % of control and 78.63 % of control and 91.67 % of control and 70.36 % of control and 75.90 % of control and 108.22 % of control and 143.98 % of control
Specific BRET (540/450), % of control ([2]; log[Ligand] -9): 144.76 % of control and 148.39 % of control and 88.63 % of control and 100.08 % of control and 88.76 % of control and 93.89 % of control and 95.60 % of control and 108.79 % of control and 114.18 % of control and 110.13 % of control
Arrestin recruitment (% TUG-905) ([3]; log[ligand] -6): 78.0249 % TUG-905 and 64.444 % TUG-905 and 40.7503 % TUG-905 and 51.9792 % TUG-905 and 61.8079 % TUG-905 and 63.543 % TUG-905
Arrestin recruitment (% TUG-905) ([3]; log[ligand] -6.5): 82.3608 % TUG-905 and 53.7805 % TUG-905 and 51.6658 % TUG-905 and 54.0552 % TUG-905 and 67.7023 % TUG-905 and 49.6983 % TUG-905
Arrestin recruitment (% TUG-905) ([3]; log[ligand] -7.5): 66.0536 % TUG-905 and 57.1103 % TUG-905 and 48.5714 % TUG-905 and 47.0829 % TUG-905 and 58.219 % TUG-905 and 65.2186 % TUG-905
Arrestin recruitment (% TUG-905) ([3]; log[ligand] -8): 69.0414 % TUG-905 and 63.7801 % TUG-905 and 51.8356 % TUG-905 and 46.0645 % TUG-905 and 48.8783 % TUG-905 and 52.0275 % TUG-905
